# According to PMC6407204, “Oral administration of the cannabigerol derivative VCE-003.2 promotes subventricular zone neurogenesis and protects against mutant huntingtin-induced neurodegeneration” (Translational Neurodegeneration, 2019):
# Legend:
# liver = assay: Hepatotoxicity of chronic administration, liver hematoxylin-eosin staining; assay type: in vivo; details: mouse, data not shown
# Protocol: As VCE-003.2 was previously shown to exert a neuroprotective action in preclinical HD models, and considering its pro-neurogenic profile, we evaluated the pathophysiological impact and potential therapeutic value of VCE-003.2 after oral administration. Pharmacokinetic analyses were performed in rats after oral administration of VCE-003.2 (50 mg/kg) dissolved in sesame oil. Plasma VCE-003.2 levels peaked at 8 h (Tmax) and then slowly declined to basal levels. […] We also investigated some critical ADME/Tox parameters. […] We also determined the potential hepatotoxicity of chronic VCE-003.2 administration by hematoxylin-eosin staining. […] We also determined the impact of VCE-003.2 administration on peripheral biomarkers by quantifying the levels of cytokines and other soluble mediators.
# S. typhimurium TA98 = assay: AMES reverse mutation assay, TA98; assay type: cell-based
# Protocol: Supplementary file 40035_2019_148_MOESM4_ESM.pdf: Additional file 4: AMES Data Summary. AMES Experimental Procedure. Approximately ten million bacteria are exposed in triplicate to VCE-003-.2 (7.8, 15.6, 31.3, 62.5, 125 and 250 μg/ml), a negative control (vehicle) and a positive control for 90 min in medium containing a low concentration of histidine (sufficient for about 2 doublings). The cultures were then diluted into indicator medium lacking histidine and dispensed into 48 wells of a 384 well plate (micro-plate format, MPF). The plate was incubated for 48 h at 37 °C, and the number of wells showing growth were counted and compared to the vehicle control. An increase in the number of colonies of at least two-fold over baseline (mean + SD of the vehicle control) and a dose response indicates a positive response. […] Where indicated, S9 fraction from the livers of Aroclor 1254-treated rats was included in the incubation at a final concentration of 4.5%. An NADPH-regenerating system is also included to ensure a steady supply of reducing equivalents. The strains used in this study were S. typhimurium TA98 (hisD3052, rfa, uvrB/pKM10 for detection of frame-shift mutations) and S. typhimurium TA100 ([…], rfa, uvrB/pKM101 for detection of base-pair substitutions). VCE-003.2 was assessed for its mutagenic potential in the AMES reverse mutation assay. This test was performed in the absence and presence of S9 metabolic activation. […] The positive controls all behaved as expected. (PDF 568 kb)
# [1] = system: C-reactive protein and pentraxins 2, 3; assay: Plasma biomarkers, cytokine and adipokine proteome arrays; assay type: in vivo, C57BL/6 N mice; details: pooled plasma, oral treatment, htt94Q mice
# Protocol: Plasma samples from wild-type and mutant huntingtin-expressing C57BL/6 N mice were pooled (n = 6 animals per group) and analyzed for cytokine and adipokine expression. The Proteome Profiler Mouse XL Cytokine Array and the Proteome Profiler Mouse Adipokine Array (R&D Systems) were used according to the manufacturer’s protocols to obtain protein expression profiles using 100 μl plasma samples. Spot density was determined using Quick Spots image analysis software (R&D Systems).
# Supplementary file 40035_2019_148_MOESM5_ESM.pdf: Additional file 5: Effect of oral VCE-003.2 on plasmatic biomarkers. Plasma samples from the indicated groups of animals (n = 6) were pooled and subjected to mouse cytokine array (ARY028; R&D Systems) and mouse adipokine array (ARY013; R&D Systems) analysis. The relative expression of the indicated biomarkers is shown. (PDF 338 kb)
# [2] = system: R1 mouse embryonic stem (mES) cell line; assay: Mouse embryonic stem cell (R1) neural differentiation, CTIP2 and doublecortin immunofluorescence; assay type: cell-based; details: 500 nM during neural differentiation for 21 days, vs vehicle
# Protocol: R1 mouse embryonic stem (mES) cell line was grown on gelatin 0.1%, in Knockout DMEM supplemented with 20% Knockout Serum Replacement, 1000 U ml-1 of LIF, 0.1 mM of non-essential amino acids, 2 mM ultraglutamine, 50 U ml-1 of penicillin and streptomycin and 0.1 mM of 2-mercaptoethanol. Cells were then differentiated at low density in Defined Default Medium (DDM) containing DMEM/F12 + GlutaMAX supplemented with N2 supplement (1×), 5 mM of Hepes Buffer, 0.1 mM of non-essential amino acids, 1 mM of sodium pyruvate, 2.5 mg ml-1 of AlbuMax-I, 30 mM of D-Glucose, 0.1 mM of non-essential amino acids, 0.1 mM of 2-mercaptoethanol, 50 U ml-1 of penicillin and streptomycin for 12 days. […]
# Free floating coronal brain slices (30 μm) were processed as previously described. […] The lateral SVZ zone was delineated by using DAPI-counterstained cell nuclei, and analyses were performed in the upper dorsal tier, in which positively-labelled cells and immunoreactivity were quantified not beyond 100 μm of the SVZ. Confocal fluorescence images were acquired by using LAS-X software (Wetzlar, Germany) and SP8 microscope with 2 passes by Kalman filter, a 1024X1024 collection box, and pinhole AU 1. […] Cells were quantified within a 20 × 20 μm counting frame, which randomly sampled within a 122.8 × 68.9 μm counting grid. […]
smiles,measurement,setting,value
"CCCCCC1=C(NCC)C(=O)C(CC=C(C)CCC=C(C)C)=C(O)C1=O [VCE-003.2, 2-(3,7-dimethyl-octa-2,6-dienyl)-6-ethylamino-3-hydroxy-5-pentyl-(1,4) benzoquinone]","hepatotoxicity, liver histology",liver,"did not show any evidence of fibrosis, steatosis, vacuolization, ballooning or inflammation"
same,AMES Result,"S. typhimurium TA98; TA98, S9 no",Negative
same,AMES Result,"S. typhimurium TA98; TA98, S9 yes",Negative
same,"plasma neuroinflammation biomarkers increased by htt94Q (C-reactive protein, pentraxins 2, 3)",[1],reverted
same,doublecortin immunoreactivity,[2],increased
same,number of CTIP2-positive cells,[2],increased the number of CTIP2-positive cells
